Results as given in US20170333591A9, “ABSORBENT ARTICLE COMPRISING MALODOR REDUCTION COMPOSITIONS” (The Procter & Gamble Company, priority 2014, published 2017).

Experiment: Log of liquid dish neat product liquid-air partition coefficient
Type: physicochemical
Details: for Log of liquid dish neat product liquid-air partition coefficient (Comment Code K/L): code letter within the Comment Code cell

CC=Cc1ccc(OC)c(OC)c1 [Material 108]
Log of liquid dish neat product liquid-air partition coefficient (Comment Code K/L): K (Log of liquid dish neat product liquid-air partition coefficient greater than or equal to 7)

CCCCCCCCCCCCCCCC(=O)OC [Material 109]
Log of liquid dish neat product liquid-air partition coefficient (Comment Code K/L): K (Log of liquid dish neat product liquid-air partition coefficient greater than or equal to 7)

C=CCc1ccc(OC)c(OC)c1 [Material 110]
Log of liquid dish neat product liquid-air partition coefficient (Comment Code K/L): K (Log of liquid dish neat product liquid-air partition coefficient greater than or equal to 7)

CCC=CCC1C(=O)CCC1CC(=O)OC (stereo not drawn) [Material 112]
Log of liquid dish neat product liquid-air partition coefficient (Comment Code K/L): K (Log of liquid dish neat product liquid-air partition coefficient greater than or equal to 7)

CCCCCC1C(=O)CCC1CC(=O)OC (stereo not drawn) [Material 113]
Log of liquid dish neat product liquid-air partition coefficient (Comment Code K/L): K (Log of liquid dish neat product liquid-air partition coefficient greater than or equal to 7)

Cc1cccc(Oc2ccccc2)c1 [Material 114]
Log of liquid dish neat product liquid-air partition coefficient (Comment Code K/L): K (Log of liquid dish neat product liquid-air partition coefficient greater than or equal to 7)

CCOc1cc(COC)ccc1O [Material 115]
Comment Code: Log of liquid dish neat product liquid-air partition coefficient: K (Log of liquid dish neat product liquid-air partition coefficient greater than or equal to 7)

COC(=O)C=Cc1ccccc1 [Material 117]
Log of liquid dish neat product liquid-air partition coefficient (Comment Code K/L): K (Log of liquid dish neat product liquid-air partition coefficient greater than or equal to 7)

C=CCc1ccc(OC)cc1 [Material 119]
Log of liquid dish neat product liquid-air partition coefficient (Comment Code K/L): K (Log of liquid dish neat product liquid-air partition coefficient greater than or equal to 7)

CC(=O)c1ccc2ccccc2c1 [Material 120]
Log of liquid dish neat product liquid-air partition coefficient (Comment Code K/L): K (Log of liquid dish neat product liquid-air partition coefficient greater than or equal to 7)

COC(C)(C)CCCC(C)C=O (stereo not drawn) [Material 125]
Comment Code: Log of liquid dish neat product liquid-air partition coefficient: K (Log of liquid dish neat product liquid-air partition coefficient greater than or equal to 7)

COC(C)(C)CCCC(C)CC=O (stereo not drawn) [Material 126]
Log of liquid dish neat product liquid-air partition coefficient (Comment Code K/L): K (Log of liquid dish neat product liquid-air partition coefficient greater than or equal to 7)

CC(C)C1CCC(CO)CC1 (stereo not drawn) [Material 133]
Comment Code: Log of liquid dish neat product liquid-air partition coefficient: K (Log of liquid dish neat product liquid-air partition coefficient greater than or equal to 7)

CC(C=O)Cc1cccc(C(C)(C)C)c1 (stereo not drawn) [Material 134]
Log of liquid dish neat product liquid-air partition coefficient (Comment Code K/L): K (Log of liquid dish neat product liquid-air partition coefficient greater than or equal to 7)

CC(C)=CCCC(C)=CCCc1ccncc1 [Material 135]
Log of liquid dish neat product liquid-air partition coefficient (Comment Code K/L): K (Log of liquid dish neat product liquid-air partition coefficient greater than or equal to 7)

C=CCCCCCCCC=CCC#N [Material 137]
Log of liquid dish neat product liquid-air partition coefficient (Comment Code K/L): K (Log of liquid dish neat product liquid-air partition coefficient greater than or equal to 7)

Cc1cccc(CC(C)(C)CO)c1 [Material 140]
Log of liquid dish neat product liquid-air partition coefficient (Comment Code K/L): K (Log of liquid dish neat product liquid-air partition coefficient greater than or equal to 7)

CC1OC(C)C2Cc3ccccc3C2O1 (stereo not drawn) [Material 141]
Comment Code: Log of liquid dish neat product liquid-air partition coefficient: K (Log of liquid dish neat product liquid-air partition coefficient greater than or equal to 7) | Log of liquid dish neat product liquid-air partition coefficient (Comment Code K/L): K (Log of liquid dish neat product liquid-air partition coefficient greater than or equal to 7)

CC1=CC2CC(C=O)C1CC2C(C)C (stereo not drawn) [Material 142]
Log of liquid dish neat product liquid-air partition coefficient (Comment Code K/L): K (Log of liquid dish neat product liquid-air partition coefficient greater than or equal to 7)

CC/C=C\CCC1=CCCC1=O [Material 146]
Log of liquid dish neat product liquid-air partition coefficient (Comment Code K/L): K (Log of liquid dish neat product liquid-air partition coefficient greater than or equal to 7)

C=CC(C)(CCC=C(C)C)OC(=O)C(C)C (stereo not drawn) [Material 149]
Log of liquid dish neat product liquid-air partition coefficient (Comment Code K/L): K (Log of liquid dish neat product liquid-air partition coefficient greater than or equal to 7)

C=CC(C)(CCC=C(C)C)OC=O (stereo not drawn) [Material 150]
Comment Code: Log of liquid dish neat product liquid-air partition coefficient: K (Log of liquid dish neat product liquid-air partition coefficient greater than or equal to 7)

C=CC(C)(CCC=C(C)C)OC(=O)CCC (stereo not drawn) [Material 151]
Comment Code: Log of liquid dish neat product liquid-air partition coefficient: K (Log of liquid dish neat product liquid-air partition coefficient greater than or equal to 7)

C=CC(C)(CCC=C(C)C)OC(C)=O (stereo not drawn) [Material 154]
Comment Code: Log of liquid dish neat product liquid-air partition coefficient: K (Log of liquid dish neat product liquid-air partition coefficient greater than or equal to 7)

C=CC1(C)CCC(C(C)(C)O)O1 (stereo not drawn) [Material 155]
Log of liquid dish neat product liquid-air partition coefficient (Comment Code K/L): K (Log of liquid dish neat product liquid-air partition coefficient greater than or equal to 7)

C=CC1(C)CCC(C(C)(C)O)O1 (stereo not drawn) [Material 156]
Log of liquid dish neat product liquid-air partition coefficient (Comment Code K/L): K (Log of liquid dish neat product liquid-air partition coefficient greater than or equal to 7)

C=CC(C)(O)CCC=C(C)C (stereo not drawn) [Material 157]
Comment Code: Log of liquid dish neat product liquid-air partition coefficient: K (Log of liquid dish neat product liquid-air partition coefficient greater than or equal to 7)

CC/C(C)=C/CC/C(C)=C\C#N [Material 158]
Log of liquid dish neat product liquid-air partition coefficient (Comment Code K/L): K (Log of liquid dish neat product liquid-air partition coefficient greater than or equal to 7)

CC1=CCC(C(C)CC=O)CC1 (stereo not drawn) [Material 159]
Log of liquid dish neat product liquid-air partition coefficient (Comment Code K/L): K (Log of liquid dish neat product liquid-air partition coefficient greater than or equal to 7)

Cc1ccc2c(c1)CC(C)(CO)C2 (stereo not drawn) [Material 161]
Log of liquid dish neat product liquid-air partition coefficient (Comment Code K/L): K (Log of liquid dish neat product liquid-air partition coefficient greater than or equal to 7)

CC(C=O)Cc1ccc(C(C)(C)C)cc1 (stereo not drawn) [Material 162]
Log of liquid dish neat product liquid-air partition coefficient (Comment Code K/L): K (Log of liquid dish neat product liquid-air partition coefficient greater than or equal to 7)

C=C(C)C1CC=C(C)C(O)C1 (stereo not drawn) [Material 170]
Log of liquid dish neat product liquid-air partition coefficient (Comment Code K/L): K (Log of liquid dish neat product liquid-air partition coefficient greater than or equal to 7)

CCCCCCCCCCCCOC(C)=O [Material 175]
Log of liquid dish neat product liquid-air partition coefficient (Comment Code K/L): K (Log of liquid dish neat product liquid-air partition coefficient greater than or equal to 7)

CCCCCCCCCCCC=O [Material 178]
Log of liquid dish neat product liquid-air partition coefficient (Comment Code K/L): K (Log of liquid dish neat product liquid-air partition coefficient greater than or equal to 7)

C=C(OCC)C1C(C)(C)CC(=O)CC1(C)C [Material 182]
Log of liquid dish neat product liquid-air partition coefficient (Comment Code K/L): K (Log of liquid dish neat product liquid-air partition coefficient greater than or equal to 7)

C=C1[C@H]2CC[C@H](CO)[C@@]23CC[C@H](C3)C1(C)C [Material 183]
Comment Code: Log of liquid dish neat product liquid-air partition coefficient: K (Log of liquid dish neat product liquid-air partition coefficient greater than or equal to 7) | Log of liquid dish neat product liquid-air partition coefficient (Comment Code K/L): K (Log of liquid dish neat product liquid-air partition coefficient greater than or equal to 7)

CC1(CO)CC1CC1CC2CC2(C)C1(C)C (stereo not drawn) [Material 185]
Comment Code: Log of liquid dish neat product liquid-air partition coefficient: K (Log of liquid dish neat product liquid-air partition coefficient greater than or equal to 7) | Log of liquid dish neat product liquid-air partition coefficient (Comment Code K/L): K (Log of liquid dish neat product liquid-air partition coefficient greater than or equal to 7)

CC1OCC(c2ccccc2)O1 (stereo not drawn) [Material 190]
Log of liquid dish neat product liquid-air partition coefficient (Comment Code K/L): K (Log of liquid dish neat product liquid-air partition coefficient greater than or equal to 7)

CC1=CCC(C)C(C)C12C=CC(C)O2 (stereo not drawn) [Material 192]
Log of liquid dish neat product liquid-air partition coefficient (Comment Code K/L): K (Log of liquid dish neat product liquid-air partition coefficient greater than or equal to 7)

CCCCCCCCCCCCCC(=O)OC(C)C [Material 196]
Log of liquid dish neat product liquid-air partition coefficient (Comment Code K/L): K (Log of liquid dish neat product liquid-air partition coefficient greater than or equal to 7)

CCCCCCCCCCCC(=O)OC(C)C [Material 197]
Log of liquid dish neat product liquid-air partition coefficient (Comment Code K/L): K (Log of liquid dish neat product liquid-air partition coefficient greater than or equal to 7)

CC1CCCCCCCCCCCCC(=O)C1 (stereo not drawn) [Material 206]
Comment Code: Log of liquid dish neat product liquid-air partition coefficient: K (Log of liquid dish neat product liquid-air partition coefficient greater than or equal to 7) | Log of liquid dish neat product liquid-air partition coefficient (Comment Code K/L): K (Log of liquid dish neat product liquid-air partition coefficient greater than or equal to 7)

CC(C)=CCCC1=CCC(C=O)CC1 (stereo not drawn) [Material 211]
Log of liquid dish neat product liquid-air partition coefficient (Comment Code K/L): K (Log of liquid dish neat product liquid-air partition coefficient greater than or equal to 7)

CC=Cc1ccc(OC(C)=O)c(OC)c1 [Material 213]
Comment Code: Log of liquid dish neat product liquid-air partition coefficient: K (Log of liquid dish neat product liquid-air partition coefficient greater than or equal to 7)

CC=Cc1ccc(O)c(OC)c1 [Material 214]
Comment Code: Log of liquid dish neat product liquid-air partition coefficient: K (Log of liquid dish neat product liquid-air partition coefficient greater than or equal to 7)

CC(=O)[C@@]1(C)CC2=C(CCCC2(C)C)C[C@@H]1C [Material 215]
Comment Code: Log of liquid dish neat product liquid-air partition coefficient: K (Log of liquid dish neat product liquid-air partition coefficient greater than or equal to 7) | Log of liquid dish neat product liquid-air partition coefficient (Comment Code K/L): K (Log of liquid dish neat product liquid-air partition coefficient greater than or equal to 7)
